Experimental data: US20060263809A1, “Method for sensitive measure of low level apoptosis in cells” (The Rgents of The University of California, priority 2005, published 2006)
Entries after “also recorded” stand apart in the source; their conditions may differ. *1 amine or outer side, *2 acyl side, *3 side chain or, on linkers, in order; H or OH if unused. Where a SMILES comes first, the peptide text is derived from it. Bridges are numbered along the chain shown (N, C = ends). Roman numbers before positions name the chains, in order. [ ]: non-standard residue; d: D form. The star is where a group is joined. Actinocin(9to1) = Cc1c2oc3c(C)ccc(C(=O)[*:1])c3nc-2c(C(=O)[*:2])c(N)c1=O; NMeV = CN[C@H](C(=O)O)C(C)C; Cbz = O=C(OCc1ccccc1)*; Sar = CNCC(=O)O; CH2F = FC*

Experiments:
MEFs [1] = assay: Caspase-independent cytochrome c release (CICR) assay, diffuse cytochrome c immunostaining; type: cell-based, mouse; details: for Diffuse cyt c (%): Act-D 40 nM, QVD 40 μM
Experimental: Caspase-independent cytochrome c release (CICR) assay. 3×10^4 cells were plated in each well of a Lab-Tek 4 well chamber slide (Nalge Nunc International, Naperville, Ill.) and treated with Act-D (40 nM), DMSO (0.2%), QVD (40 μM), or QVD plus Act-D for 1, 2, or 3 days. QVD (and Act-D+QVD) was replaced each day. At the end of the experiment, cells were washed twice with PBS and fixed with 4% formaldahyde in PBS for 5 minutes at room temperature. The cells were then washed twice with PBS and then incubated in blocking buffer (3% BSA and 0.1% Triton-X in PBS) for 30 min at room temperature. Cells were incubated for 1 hour at room temperature with anti-cytochrome c (Pharmingen, San Jose, Calif.) diluted 1:800 and 15 μg/ml Hoechst 33342 in blocking buffer. Cells were washed 5 times with PBS, and incubated with anti-mouse secondary antibody for 1 hour at room temperature. The cells were washed 5 times with PBS and then mounted in Prolong (Molecular Probes, Eugene, Oreg.).
Cells were scored as apoptotic if cytochrome c appeared diffuse and met the following criteria: 1) presence of diffuse cytochrome c in both the cytoplasm and nucleus; 2) lack of reticulated or punctate staining in the cytoplasm. Typically images were acquired using a 20× objective, and 500-800 cells were scored. For the exact number of cells counted in FIGS. 3A, 4, and 5, see Table 1 below. Nuclei were counted using images of uniformly illuminated Hoechst staining imported into Image J (URL: <http://rsb.info.nih.gov/ij/>).

MEFs [2] = assay: Cell detachment scoring of Act-D-treated cultures with caspase inhibitors; type: cell-based, mouse; details: Act-D 40 nM, 3 days
Experimental: MEFs were given Act-D (40 nM in DMSO) or DMSO and either no inhibitor, zVAD (100 μM) or QVD (40 μM). After 3 days, the cells were photographed at 10× magnification.
(§1) Subconfluent cultures were treated with the caspase inhibitors zVAD or QVD together with actinomycin D (Act-D; 40 nM), which is known to induce cell death […]. Initially, the cultures were simply scored for cell detachment, a late event in the apoptotic response of adherent cells.

HMECs = assay: as above; type: cell-based, human; details: for detachment of cells in the presence of Act-D and caspase inhibitor: Act-D treated
Experimental: as §1

WI-38 fibroblasts = assay: as above; type: cell-based, human; details: for attachment of Act-D treated cells with caspase inhibitor: WI-38 cells
Experimental: as §1

MEFs [3] = assay: PI exclusion assay (flow cytometry); type: cell-based, mouse
Experimental: PI exclusion assay. 1×10^5 cells were treated with Act-D (40 nM in DMSO), DMSO (0.2%), QVD (40 μM), or QVD plus Act-D for 1, 2, or 3 days. QVD (and Act-D+QVD) was replaced each day. At the end of the experiment, PI was added to a final concentration of 10 μg/ml. Following 10 min in the incubator, media were collected and the cells were washed with PBS. The PBS was also collected and combined with the media. The remaining cells were trypsinized and then combined with the mix of PBS and media. The cells were centrifuged at 200 g for 10 minutes and resuspended in 300 μl of PBS. The cells were then quantified and analyzed as above (Cotter and Martin, 1996).

MEFs [4] = assay: Sub-G1 peak determination (flow cytometry); type: cell-based, mouse
Experimental: Cell Death Assays: Sub-G1 peak determination. 1×10^5 cells were treated with Act-D (40 nM in DMSO), DMSO (0.2%), QVD (40 μM), or QVD plus Act-D for 1, 2, or 3 days. QVD (and Act-D+QVD) was replaced each day. At the end of the experiment, media were collected and washed once with PBS. The PBS was also collected and then the cells were trypisized. Trypsinization was stopped by addition of the previously collected and pooled media and PBS. Cells were then collected by centrifugation at 200 g for 10 minutes, resuspended in 70% ethanol and stored at −20° C. overnight. The fixed cells were resuspended in 300 μl of PBS containing 10 μg/ml PI and 0.5 μg/ml RNase A and incubated at room temperature for 1 hour. Cells were quantified by flow cytometery using a FACscan (Becton Dickinson) in FL-3 and analyzed using Cellquest software (BD) (Cotter and Martin, 1996).

MEFs [5] = assay: Mitochondrial membrane potential (TMRE, flow cytometry); type: cell-based, mouse
Experimental: Mitochondrial Membrane Potential. 1×10^5 cells were treated with Act-D and QVD for 1, 2, or 3 days. QVD (and Act-D+QVD) was replaced each day. At the end of the experiment, media were collected and the cells were washed with PBS. The PBS was collected and combined with the media. Cells were trypsinized and resuspended in medium and PBS, as described above. The cells were spun for 5 min at 200 g and resuspended in fresh media containing TMRE (50 nM) and allowed to incubate at 37° C. for 30 minutes. Fluorescence was quantified in FL-2 using a FACscan and analyzed with Cellquest software (Waterhouse et al., 2001).

HeLa cells = assay: Cytochrome c immunocytochemistry of HeLa cells treated with ActD and ZVAD-fmk; type: cell-based; details: 24 h after treatment
Experimental: FIGS. 6A and 61B are photographs of the cells after the apoptosis assay. FIG. 6A. Immunocytochemistry. HeLa cells were treated with vehicle (DMSO Control), actinomycin D (ActD) to induce apoptosis, or ActD plus the caspase inhibitor ZVAD-fmk. 24 h later, cells were immunostained for cytochrome c (green) and counterstained with DAPI (blue) to identify nuclei. In control cells, cytochrome c is evident as punctate mitochondrial staining. […] FIG. 6B. Quantification. The % cells with diffuse cytochrome c staining (x axis) were scored 24 h after treatment with vehicle (Contr), ActD or ActD plus ZVAD (ZV). Cytochrome c staining in the presence of ZVAD allows apoptotic cells to accumulate over 24 h.

HCA-2 fibroblasts = assay: Growth curves in media with QVD; type: cell-based; details: 0.1% DMSO + 40 μM QVD
Experimental: (§2) HCA-2 fibroblasts and HMEC were grown in normal growth media (DMEM, MEGM) or normal growth media supplemented with 0.1% DMSO (DMSO) or 0.1% DMSO+40 μM QVD (QVD). HCA-2 growth curves were averaged triplicates (HCA-2) or duplicates (HMEC) and error bars (HCA-2) are SD.

HMEC = assay: Growth curves in media with QVD; type: cell-based, human; details: 0.1% DMSO + 40 μM QVD
Experimental: as §2

[6] = cited from earlier work
[7] = MEFs treated with Act-D for one day

Cc1c2oc3c(C)ccc(C(=O)N[C@@H]4C(=O)N[C@H](C(C)C)C(=O)N5CCC[C@H]5C(=O)N(C)CC(=O)N(C)[C@@H](C(C)C)C(=O)O[C@@H]4C)c3nc-2c(C(=O)N[C@@H]2C(=O)N[C@H](C(C)C)C(=O)N3CCC[C@H]3C(=O)N(C)CC(=O)N(C)[C@@H](C(C)C)C(=O)O[C@@H]2C)c(N)c1=O [Act-D, actinomycin D] (I: T[dV]P[Sar][NMeV] / II: T[dV]P[Sar][NMeV]; ester I:1-I:C, II:1-II:C; linker I:N-II:N via Actinocin(9to1))
cells apoptotic by CICR assay (MEFs [1]; MEFs treated with Act-D for one day, CICR assay (QVD present)): 13% | cells dead or dying by CICR assay (MEFs [1]; MEFs treated with Act-D, after 3 days, CICR assay (QVD present)): 96% | time at which Act-D begins killing cells by CICR assay (MEFs [1]; MEFs, CICR assay): ≤ 24 h | Diffuse cyt c (%) (MEFs [1]; MEFs, Day 1): 0.8% | Diffuse cyt c (%) (MEFs [1]; MEFs, Day 2): 13.4% | apoptotic morphology and detachment (MEFs [2]): adopt characteristic apoptotic morphology and detach from the culture dish | apoptotic morphology and detachment (HMECs; Act-D 40 nM, 3 days): adopt characteristic apoptotic morphology and detach from the culture dish | apoptotic morphology and detachment (WI-38 fibroblasts; WI-38, Act-D 40 nM, 3 days): adopt characteristic apoptotic morphology and detach from the culture dish | cells died by PI exclusion assay (MEFs [3]; MEFs treated with Act-D, after 3 days): 74% | time after addition at which manifestations of apoptosis were apparent (propidium iodide exclusion) (MEFs [3]; MEFs, Act-D): 1 to 2 days | apoptosis detected by subG1 peak determination (MEFs [4]; [7]): little or no apoptosis | time after addition at which manifestations of apoptosis were apparent (sub-G1 DNA peak) (MEFs [4]; MEFs, Act-D): 1 to 2 days | apoptosis detected by loss of ΔΨm (MEFs [5]; [7]): little or no apoptosis | time after addition at which manifestations of apoptosis were apparent (reduction in ΔΨm) (MEFs [5]; MEFs, Act-D): 1 to 2 days | cells remaining on dish and cytochrome c staining (HeLa cells): fewer cells are present on the culture dish

CC(C)[C@H](NC(=O)c1ccc2ccccc2n1)C(=O)N[C@@H](CC(=O)O)C(=O)COc1c(F)cccc1F [QVD, Quinoline-Val-Asp-Ch2-O-Ph]
Diffuse cyt c (%) (MEFs [1]; MEFs, Day 1): 2.0% | Diffuse cyt c (%) (MEFs [1]; MEFs, Day 2): 2.3% | Diffuse cyt c (%) (MEFs [1]; MEFs, Day 3): 3.2% | prevention of Act-D-induced cell detachment (MEFs [2]; QVD 40 μM): preserves adhesion; also recorded: prevented most of the cell detachment | detachment of cells in the presence of Act-D and caspase inhibitor (HMECs): a small fraction detached | attachment of Act-D treated cells with caspase inhibitor (WI-38 fibroblasts): remained equally well attached | effect on Act-D-induced loss of propidium iodide exclusion (MEFs [3]; MEFs, Act-D, 40 μM QVD): substantially or completely reduced | effect on Act-D-induced sub-G1 DNA peak (MEFs [4]; MEFs, Act-D, 40 μM QVD): substantially or completely reduced | effect on Act-D-induced reduction in ΔΨm (MEFs [5]; MEFs, Act-D, 40 μM QVD): substantially or completely reduced | effect on cell growth (HCA-2 fibroblasts): does not inhibit growth | effect on cell growth (HMEC): does not inhibit growth | dose with no toxicity / administered safely ([6]; animal, data sheet of distributor MP Biomedicals): 1 g/kg of body weight | dose reported as safely used ([6]; in vivo, Yang et al. 2004): 20 mg/kg of body weight

COC(=O)C[C@H](NC(=O)[C@H](C)NC(=O)[C@@H](NC(=O)OCc1ccccc1)C(C)C)C(=O)CF [zVAD, benzyloxycarbonyl-Val-Ala-Asp-fluoromethylketone] (Cbz-Val-Ala-Asp(OMe)-CH2F)
prevention of Act-D-induced cell detachment (MEFs [2]; zVAD 100 μM): failed to prevent detachment | detachment of cells in the presence of Act-D and caspase inhibitor (HMECs): a larger fraction detached | attachment of Act-D treated cells with caspase inhibitor (WI-38 fibroblasts): remained equally well attached
